What was measured:
Italian ryegrass [1] = test: Test C preemergence; type: in vivo, Lolium multiflorum; settings: Lolium multiflorum, pre-emergence
Procedure, shortened: (§1)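 Rated visually on 0–100 (100 = complete control) after 13–15 days under glass. Treatments went onto freshly seeded loam/sand soil or onto emerged plants at the 1- to 4-leaf stage, using a surfactant-containing solvent formulation.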

soybean = test: Test C postemergence; type: in vivo, Glycine max; settings: Glycine max, post-emergence
Procedure, shortened: as §1

johnsongrass = test: Test C postemergence; type: in vivo, Sorghum halepense; settings: Sorghum halepense, post-emergence
Procedure, shortened: as §1

barnyardgrass [2] = test: Test C preemergence; type: in vivo, Echinochloa crus-galli; settings: Echinochloa crus-galli, pre-emergence
Procedure, shortened: as §1

wheat, winter = test: Test C preemergence; type: in vivo, Triticum aestivum; settings: Triticum aestivum, pre-emergence
Procedure, shortened: as §1

barnyardgrass [3] = test: Test A postemergence; type: in vivo, Echinochloa crus-galli; settings: Echinochloa crus-galli, post-emergence, 240 h, 0 to 100 scale where 0 is no effect and 100 is complete control
Procedure, shortened: (§2)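 Greenhouse pot test, loam/sand soil. Formulation: non-phytotoxic solvent mix plus surfactant. Pre: directed spray onto soil after sowing. Post: plants at 1–2 leaf, 2–10 cm. Rated visually vs untreated controls at ~10 d, 0 (no effect) to 100 (complete control).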

blackgrass = test: Test C preemergence; type: in vivo, Alopecurus myosuroides; settings: Alopecurus myosuroides, pre-emergence
Procedure, shortened: as §1

giant foxtail [4] = test: Test A preemergence; type: in vivo, Setaria faberii; settings: Setaria faberi, pre-emergence, 240 h, 0 to 100 scale where 0 is no effect and 100 is complete control
Procedure, shortened: as §2

pigweed = test: Test A postemergence; type: in vivo, Amaranthus retroflexus; settings: Amaranthus retroflexus, post-emergence, 0 to 100 scale where 0 is no effect and 100 is complete control
Procedure, shortened: as §2

lambsquarters = test: Test C preemergence; type: in vivo, Chenopodium album; settings: Chenopodium album, pre-emergence
Procedure, shortened: as §1

Italian ryegrass [5] = test: Test C postemergence; type: in vivo, Lolium multiflorum; settings: Lolium multiflorum, post-emergence
Procedure, shortened: as §1

giant foxtail [6] = test: Test A postemergence; type: in vivo, Setaria faberii; settings: Setaria faberi, post-emergence, 240 h, 0 to 100 scale where 0 is no effect and 100 is complete control
Procedure, shortened: as §2

Heteranthera limosa = test: Test B flooded paddy test; type: in vivo; settings: Heteranthera limosa, Flood, 250 g ai/ha; 0 to 100 scale where 0 is no effect and 100 is complete control; read-out: Plant response rating, Ducksalad
Procedure, shortened: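 Post-emergence paddy-water application at the 2-leaf stage, with 3 cm flood kept for the whole test. Response was judged visually relative to controls after 13 to 15 greenhouse days, 0 indicating no effect and 100 complete control.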

velvetleaf = test: Test C preemergence; type: in vivo, Abutilon theophrasti; settings: Abutilon theophrasti, pre-emergence
Procedure, shortened: as §1

For `FC(F)(F)Sc1cnn(-c2ccccc2Oc2ncc(Cl)cn2)c1` [Compound 132, 5-chloro-2-[2-[4-(trifluoromethylthio)-1H-pyrazol-1-yl]phenoxy]pyrimidine], the pest or weed control at 16 g/ha (Italian ryegrass [1]; 16 g ai/ha, preemergence, scale 0 to 100 (0 no effect, 100 complete control), read-out: Ryegrass, Italian plant response rating) was 0%, the pest or weed control at 62 g/ha (Italian ryegrass [1]; 62 g ai/ha, preemergence, scale 0 (no effect) to 100 (complete control), read-out: Ryegrass, Italian plant response rating) was 5% and the pest or weed control at 125 g/ha (Italian ryegrass [1]; 125 g ai/ha, preemergence, scale 0 (no effect) to 100 (complete control), read-out: Ryegrass, Italian plant response rating) was 30%. The pest or weed control at 31 g/ha (Italian ryegrass [1]; Preemergence, 31 g ai/ha, scale 0 to 100, 0 no effect, 100 complete control, read-out: Plant response rating, Ryegrass, Italian) was 0%, the Soybean plant response rating (crop injury, 0-100 scale) at 16 g/ha (soybean; 16 g ai/ha, postemergence, 0 is no effect, 100 is complete control) was 20% and the Soybean plant response rating (crop injury, 0-100 scale) at 125 g/ha (soybean; 125 g ai/ha, postemergence, visual rating, scale 0 to 100 (0 no effect, 100 complete control), read-out: Plant response rating, Soybean) was 50%. The Soybean plant response rating (crop injury, 0-100 scale) at 62 g/ha (soybean; Postemergence, 62 g ai/ha, scale 0 to 100 (0 no effect, 100 complete control)) was 35%, the pest or weed control at 16 g/ha (johnsongrass; 16 g ai/ha, postemergence, 0 is no effect, 100 is complete control, read-out: Plant response rating (0 to 100), Johnsongrass) was 5% and the pest or weed control at 125 g/ha (johnsongrass; 125 g ai/ha, postemergence, visual rating, scale 0 to 100 (0 no effect, 100 complete control), read-out: Plant response rating, Johnsongrass) was 5%. For the same molecule, the pest or weed control at 62 g/ha (johnsongrass; Postemergence, 62 g ai/ha, scale 0 to 100 (0 no effect, 100 complete control), read-out: Plant response rating, Johnsongrass) was 5%, the pest or weed control at 16 g/ha (barnyardgrass [2]; 16 g ai/ha, preemergence, scale 0 to 100 (0 no effect, 100 complete control), read-out: Barnyardgrass plant response rating) was 0% and the pest or weed control at 62 g/ha (barnyardgrass [2]; 62 g ai/ha, preemergence, scale 0 (no effect) to 100 (complete control), read-out: Barnyardgrass plant response rating) was 10%. The pest or weed control at 125 g/ha (barnyardgrass [2]; 125 g ai/ha, preemergence, scale 0 (no effect) to 100 (complete control), read-out: Barnyardgrass plant response rating) was 75%, the pest or weed control at 31 g/ha (barnyardgrass [2]; Preemergence, 31 g ai/ha, scale 0 to 100, 0 no effect, 100 complete control, read-out: Plant response rating, Barnyardgrass) was 0% and the plant injury at 16 g/ha (wheat, winter; 16 g ai/ha, preemergence, scale 0 to 100 (0 no effect, 100 complete control), read-out: Wheat plant response rating) was 0%. The plant injury at 62 g/ha (wheat, winter; 62 g ai/ha, preemergence, scale 0 (no effect) to 100 (complete control), read-out: Wheat plant response rating) was 0%, the plant injury at 125 g/ha (wheat, winter; 125 g ai/ha, preemergence, scale 0 (no effect) to 100 (complete control), read-out: Wheat plant response rating) was 0% and the plant injury at 31 g/ha (wheat, winter; Preemergence, 31 g ai/ha, scale 0 to 100, 0 no effect, 100 complete control, read-out: Plant response rating, Wheat) was 0%. It also gave a pest or weed control at 125 g/ha (barnyardgrass [3]; 125 g ai/ha, read-out: Barnyardgrass plant response rating) of 50%, a pest or weed control at 500 g/ha (barnyardgrass [3]; 500 g ai/ha, read-out: Plant response rating, Barnyardgrass) of 70% and a pest or weed control at 16 g/ha (blackgrass; 16 g ai/ha, preemergence, scale 0 to 100 (0 no effect, 100 complete control), read-out: Blackgrass plant response rating) of 0%. It also gave a pest or weed control at 62 g/ha (blackgrass; 62 g ai/ha, preemergence, scale 0 (no effect) to 100 (complete control), read-out: Blackgrass plant response rating) of 40%, a pest or weed control at 125 g/ha (blackgrass; 125 g ai/ha, preemergence, scale 0 (no effect) to 100 (complete control), read-out: Blackgrass plant response rating) of 95% and a pest or weed control at 31 g/ha (blackgrass; Preemergence, 31 g ai/ha, scale 0 to 100, 0 no effect, 100 complete control, read-out: Plant response rating, Blackgrass) of 5%. For the same molecule, the pest or weed control at 125 g/ha (giant foxtail [4]; 125 g ai/ha, read-out: Plant response rating, Foxtail, Giant) was 90%, the pest or weed control at 500 g/ha (giant foxtail [4]; 500 g ai/ha, read-out: Foxtail, Giant plant response rating) was 100% and the pest or weed control at 500 g/ha (pigweed; 500 g ai/ha, read-out: Plant response rating, Pigweed) was 100%. For the same molecule, the pest or weed control at 125 g/ha (pigweed; 240 h, 125 g ai/ha, read-out: Pigweed plant response rating) was 100%, the pest or weed control at 16 g/ha (lambsquarters; 16 g ai/ha, preemergence, scale 0 to 100 (0 no effect, 100 complete control), read-out: Lambsquarters plant response rating) was 75% and the pest or weed control at 62 g/ha (lambsquarters; 62 g ai/ha, preemergence, scale 0 (no effect) to 100 (complete control), read-out: Lambsquarters plant response rating) was 100%. For the same molecule, the pest or weed control at 125 g/ha (lambsquarters; 125 g ai/ha, preemergence, scale 0 (no effect) to 100 (complete control), read-out: Lambsquarters plant response rating) was 100%, the pest or weed control at 31 g/ha (lambsquarters; Preemergence, 31 g ai/ha, scale 0 to 100, 0 no effect, 100 complete control, read-out: Plant response rating, Lambsquarters) was 55% and the pest or weed control at 16 g/ha (Italian ryegrass [5]; 16 g ai/ha, postemergence, 0 is no effect, 100 is complete control, read-out: Plant response rating (0 to 100), Ryegrass, Italian) was 0%. It also gave a pest or weed control at 125 g/ha (Italian ryegrass [5]; 125 g ai/ha, postemergence, visual rating, scale 0 to 100 (0 no effect, 100 complete control), read-out: Plant response rating, Ryegrass, Italian) of 5%, a pest or weed control at 62 g/ha (Italian ryegrass [5]; Postemergence, 62 g ai/ha, scale 0 to 100 (0 no effect, 100 complete control), read-out: Plant response rating, Ryegrass, Italian) of 5% and a pest or weed control at 125 g/ha (giant foxtail [6]; 125 g ai/ha, read-out: Foxtail, Giant plant response rating) of 60%. The pest or weed control at 500 g/ha (giant foxtail [6]; 500 g ai/ha, read-out: Plant response rating, Foxtail, Giant) was 90%, the pest or weed control at 250 g/ha (Heteranthera limosa) was 0% and the pest or weed control at 16 g/ha (velvetleaf; 16 g ai/ha, preemergence, scale 0 to 100 (0 no effect, 100 complete control), read-out: Velvetleaf plant response rating) was 75%. For the same molecule, the pest or weed control at 62 g/ha (velvetleaf; 62 g ai/ha, preemergence, scale 0 (no effect) to 100 (complete control), read-out: Velvetleaf plant response rating) was 100%, the pest or weed control at 125 g/ha (velvetleaf; 125 g ai/ha, preemergence, scale 0 (no effect) to 100 (complete control), read-out: Velvetleaf plant response rating) was 100% and the pest or weed control at 31 g/ha (velvetleaf; Preemergence, 31 g ai/ha, scale 0 to 100, 0 no effect, 100 complete control, read-out: Plant response rating, Velvetleaf) was 85%.
